{"source": "paper PMC4139061", "about": "“Structural basis of nucleoside and nucleoside drug selectivity by concentrative nucleoside transporters” (eLife, 2014)", "key": {"vcCNT": {"molecular_target": "vcCNT (Vibrio cholerae, UniProt Q9KPL5)", "sequence (Q9KPL5 entry or part of it)": "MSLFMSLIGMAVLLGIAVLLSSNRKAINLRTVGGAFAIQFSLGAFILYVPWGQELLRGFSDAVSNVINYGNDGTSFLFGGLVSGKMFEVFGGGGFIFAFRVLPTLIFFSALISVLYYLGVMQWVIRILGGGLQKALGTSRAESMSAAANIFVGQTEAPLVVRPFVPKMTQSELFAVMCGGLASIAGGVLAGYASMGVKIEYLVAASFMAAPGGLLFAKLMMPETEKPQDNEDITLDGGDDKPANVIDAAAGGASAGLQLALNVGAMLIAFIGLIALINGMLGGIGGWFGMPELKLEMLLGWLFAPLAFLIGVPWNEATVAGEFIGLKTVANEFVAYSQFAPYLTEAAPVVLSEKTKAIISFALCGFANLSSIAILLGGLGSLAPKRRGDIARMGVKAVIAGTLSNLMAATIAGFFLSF", "experiment": "biochemical", "assay_type": "binding", "settings": "for mAnisotropy: [pyrrolo-gemcitabine] 2.00 μM"}, "hCNT2": {"molecular_target": "hCNT2 (Homo sapiens, UniProt O43868)", "sequence (O43868 whole entry)": "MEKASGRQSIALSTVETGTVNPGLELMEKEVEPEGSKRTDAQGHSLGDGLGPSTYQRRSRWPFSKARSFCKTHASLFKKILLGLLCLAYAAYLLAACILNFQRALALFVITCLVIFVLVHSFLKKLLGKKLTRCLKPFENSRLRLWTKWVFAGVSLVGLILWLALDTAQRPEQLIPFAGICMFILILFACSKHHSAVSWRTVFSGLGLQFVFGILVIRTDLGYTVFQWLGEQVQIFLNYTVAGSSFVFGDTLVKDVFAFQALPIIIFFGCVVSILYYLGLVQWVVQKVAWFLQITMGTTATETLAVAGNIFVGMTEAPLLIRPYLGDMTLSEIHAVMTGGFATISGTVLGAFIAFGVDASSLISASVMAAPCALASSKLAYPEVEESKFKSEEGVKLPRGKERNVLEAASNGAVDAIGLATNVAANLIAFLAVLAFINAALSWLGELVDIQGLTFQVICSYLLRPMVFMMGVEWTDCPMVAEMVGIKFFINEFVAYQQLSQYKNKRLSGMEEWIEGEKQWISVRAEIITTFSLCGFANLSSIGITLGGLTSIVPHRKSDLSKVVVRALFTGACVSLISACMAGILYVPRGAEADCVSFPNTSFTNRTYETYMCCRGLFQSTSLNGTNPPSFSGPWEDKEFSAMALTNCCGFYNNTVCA", "experiment": "two-electrode voltage-clamp of Na+ currents in Xenopus oocytes expressing hCNT2", "assay_type": "cell-based", "settings": "data not shown", "text": "(§1) To detect nucleoside transport by hCNTs, we turned to two-electrode voltage-clamp electrophysiological recording. Because hCNTs are Na^+-nucleoside symporters, one can measure the current generated by the Na^+ transport that is coupled with nucleoside transport. We injected Xenopus oocytes with mRNA coding for each of the hCNTs and measured inward Na^+ currents elicited by the addition of different nucleosides to the extracellular side.\n(§2) The genes coding for the three hCNTs and vcCNT were cloned into a pGEM-HE vector. Plasmids were linearized using either SphI or NheI, and mRNA was transcribed using the mMESSAGE mMACHINE T7 Transcription Kit (Ambion, Grand Island, NY). Defolliculated Xenopus laevis oocytes were purchased from Ecocyte Bioscience (Austin, TX). Individual oocytes were injected with 40 ng of mRNA using a 10-μl microdispenser (Drummond Scientific, Broomall, PA) fitted with a tapered glass pipette tip and incubated at 17 °C for 4–5 days in ND96 buffer (96 mM NaCl, 2 mM KCl, 1 mM MgCl2, 1.8 mM CaCl2, and 5 mM HEPES pH 7.5) with 0.1% penicillin and streptomycin before recording.\nThe oocyte-recording chamber was gravity-perfused with ND96 buffer at a rate of 2 ml/min. Membrane currents were measured using an Oocyte Clamp (OC-725C; Warner Instruments, Hamden, CT). Individual oocytes were penetrated with two microelectrodes filled with 3 M KCl (0.5–1.0 MΩ). […]"}, "hCNT3 (375L/446V)": {"molecular_target": "hCNT3 (375L/446V) (Homo sapiens, UniProt Q9HAS3, L446V/V375L)", "sequence (Q9HAS3 whole entry V375L/L446V)": "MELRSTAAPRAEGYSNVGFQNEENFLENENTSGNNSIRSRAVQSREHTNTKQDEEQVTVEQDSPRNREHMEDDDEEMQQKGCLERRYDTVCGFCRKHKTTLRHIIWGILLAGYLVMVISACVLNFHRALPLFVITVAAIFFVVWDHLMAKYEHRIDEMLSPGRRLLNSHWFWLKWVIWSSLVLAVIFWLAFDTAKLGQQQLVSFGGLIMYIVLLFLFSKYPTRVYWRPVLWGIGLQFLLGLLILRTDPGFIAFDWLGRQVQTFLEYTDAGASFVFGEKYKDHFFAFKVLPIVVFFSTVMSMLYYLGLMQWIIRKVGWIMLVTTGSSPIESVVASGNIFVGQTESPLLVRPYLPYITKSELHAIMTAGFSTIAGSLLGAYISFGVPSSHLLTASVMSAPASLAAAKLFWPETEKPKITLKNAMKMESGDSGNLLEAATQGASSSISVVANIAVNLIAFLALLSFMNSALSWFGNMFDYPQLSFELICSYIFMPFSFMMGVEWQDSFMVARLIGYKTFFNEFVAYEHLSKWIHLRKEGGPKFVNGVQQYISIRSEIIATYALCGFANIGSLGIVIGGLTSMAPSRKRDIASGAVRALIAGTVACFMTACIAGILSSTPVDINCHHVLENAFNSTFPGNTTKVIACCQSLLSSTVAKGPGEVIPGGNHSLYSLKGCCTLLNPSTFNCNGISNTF", "experiment": "two-electrode voltage-clamp total charge in Xenopus oocytes expressing hCNT3 (375L/446V)", "assay_type": "cell-based", "settings": "mean of Exp. 1-11", "text": "In the paradigm of the alternating-access mechanism of sodium-coupled symporters ([Krishnamurthy et al., 2009]), substrate release is achieved by the transition from the inward-facing occluded to the inward-facing open state (Figure 6C).\n(§3) Figure 6. […] (A) Model of hCNT3 nucleo-pocket. […] (B) Model of hCNT1 nucleo-pocket. […] (C) Hypothetical alternating-access mechanism of vcCNT. A cartoon representation of the different conformational states along the transport cycle is depicted. The transport domain (including HP1, HP2, TM4b, and TM7b) and TM6 are shown as cylinders. […] The nucleo-pocket in the inward-occluded conformation (bottom right) is located between TM6 and TM4 and is marked with a green star. The inward-occluded conformation is derived from the crystal structures of vcCNT. All other conformations are purely hypothetical. The transition between inward- and outward-facing conformations has been proposed to be achieved by a rigid-body movement of the transport domain across TM6 ([Johnson et al., 2012]). Extracellular and intracellular gating likely involves slight rearrangements of HP2/TM4b and HP1/TM7b, respectively. […] See Figure 6—source data 1 for total charge source data. DOI: http://dx.doi.org/10.7554/eLife.03604.024 Figure 6—source data 1. Total charge data. Total charge transported (μC) was calculated as the area under the curve of the current trace after application of the indicated nucleoside to hCNT-expressing Xenopus oocytes. Each row represents a separate experiment done using a different oocyte. The ratios of the total charge transported for the nucleosides are shown in the last columns.\nThe genes coding for the three hCNTs and vcCNT were cloned into a pGEM-HE vector. Plasmids were linearized using either SphI or NheI, and mRNA was transcribed using the mMESSAGE mMACHINE T7 Transcription Kit (Ambion, Grand Island, NY). […]\nThe oocyte-recording chamber was gravity-perfused with ND96 buffer at a rate of 2 ml/min. Membrane currents were measured using an Oocyte Clamp (OC-725C; Warner Instruments, Hamden, CT). […]"}, "hCNT1 (353V/424L)": {"molecular_target": "hCNT1 (353V/424L) (Homo sapiens, UniProt O00337, L353V/V424L)", "sequence (O00337 whole entry L353V/V424L, the tested form may be a part)": "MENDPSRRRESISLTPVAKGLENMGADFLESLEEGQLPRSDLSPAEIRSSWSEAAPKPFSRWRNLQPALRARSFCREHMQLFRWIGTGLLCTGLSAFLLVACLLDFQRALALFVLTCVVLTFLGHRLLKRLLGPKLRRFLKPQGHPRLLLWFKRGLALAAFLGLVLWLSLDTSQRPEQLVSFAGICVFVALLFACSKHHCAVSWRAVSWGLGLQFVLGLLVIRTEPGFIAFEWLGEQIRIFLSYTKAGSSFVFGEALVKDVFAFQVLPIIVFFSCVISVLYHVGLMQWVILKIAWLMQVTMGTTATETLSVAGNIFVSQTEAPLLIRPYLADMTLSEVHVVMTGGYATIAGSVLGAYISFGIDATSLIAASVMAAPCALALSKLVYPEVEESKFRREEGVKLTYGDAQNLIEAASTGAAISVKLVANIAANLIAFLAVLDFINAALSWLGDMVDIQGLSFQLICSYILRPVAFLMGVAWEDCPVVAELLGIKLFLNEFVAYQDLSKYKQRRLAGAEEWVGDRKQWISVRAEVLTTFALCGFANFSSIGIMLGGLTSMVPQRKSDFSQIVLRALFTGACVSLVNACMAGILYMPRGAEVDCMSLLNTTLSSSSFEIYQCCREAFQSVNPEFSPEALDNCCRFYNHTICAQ", "experiment": "two-electrode voltage-clamp total charge in Xenopus oocytes expressing hCNT1 (353V/424L)", "assay_type": "cell-based", "settings": "mean of Exp. 1-8", "text": "as §3, §2\n(§4) The oocyte-recording chamber was gravity-perfused with ND96 buffer at a rate of 2 ml/min. Membrane currents were measured using an Oocyte Clamp (OC-725C; Warner Instruments, Hamden, CT). Individual oocytes were penetrated with two microelectrodes filled with 3 M KCl (0.5–1.0 MΩ). All electrophysiological experiments were conducted at room temperature. The OC-725C Oocyte Clamp was computer-interfaced via an Axon Digidata 1550 and controlled by Axoscope software (Molecular Devices, Sunnyvale, CA). The current signals were filtered at 20 Hz and sampled at intervals of 20 ms."}, "hCNT3": {"molecular_target": "T1, hCNT3 (Homo sapiens, UniProt Q9HAS3)", "T1 sequence (Q9HAS3 1-691)": "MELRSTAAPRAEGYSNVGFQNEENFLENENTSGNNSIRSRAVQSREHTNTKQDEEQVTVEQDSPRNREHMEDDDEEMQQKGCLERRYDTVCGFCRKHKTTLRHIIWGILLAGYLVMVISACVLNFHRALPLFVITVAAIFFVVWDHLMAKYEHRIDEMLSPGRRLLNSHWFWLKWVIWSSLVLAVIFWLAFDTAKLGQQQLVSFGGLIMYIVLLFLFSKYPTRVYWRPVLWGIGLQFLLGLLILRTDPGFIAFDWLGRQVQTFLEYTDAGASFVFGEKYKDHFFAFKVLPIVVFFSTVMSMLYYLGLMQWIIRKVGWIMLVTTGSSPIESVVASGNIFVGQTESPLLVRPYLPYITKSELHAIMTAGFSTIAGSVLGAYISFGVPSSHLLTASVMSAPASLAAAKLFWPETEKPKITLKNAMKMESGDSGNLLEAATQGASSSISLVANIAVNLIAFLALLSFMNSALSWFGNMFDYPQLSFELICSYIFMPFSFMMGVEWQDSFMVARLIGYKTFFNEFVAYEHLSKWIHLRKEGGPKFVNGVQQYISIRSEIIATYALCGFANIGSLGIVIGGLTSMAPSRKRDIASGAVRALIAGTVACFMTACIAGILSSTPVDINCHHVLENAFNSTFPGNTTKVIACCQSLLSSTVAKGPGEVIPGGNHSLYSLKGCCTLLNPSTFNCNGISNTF", "experiment": "two-electrode voltage-clamp of Na+ currents / total charge in Xenopus oocytes expressing hCNT3", "assay_type": "cell-based", "text": "as §1, §2\nas §4, with “ms. The signals were filtered at 0.5 Hz by use of pCLAMP 10.4 software for data presentation. […] Cells were discarded if resting membrane potentials were unstable or more positive than −30 mV. Oocyte membrane potentials were clamped at −90 mV for holding potentials to measure transporter-generated currents. All data are shown as means ± SEM.” for “ms.”"}}, "note": "Values joined by “and” are separate entries in the source; they are usually repeats but may differ in a detail not shown here. Equal entries are not always repeated.", "data": [{"compound": "Cc1cc2cn([C@@H]3O[C@H](CO)[C@@H](O)C3(F)F)c(=O)nc2[nH]1", "note": "[pyrrolo-gemcitabine]", "values": [{"measurement": "mAnisotropy", "setting": "vcCNT; [vcCNT] 0 μM", "result": "44.1 and 33.7 and 35.1"}, {"measurement": "mAnisotropy", "setting": "vcCNT; [vcCNT] 1.0 μM", "result": "45.4 and 36.3 and 43.5"}, {"measurement": "mAnisotropy", "setting": "vcCNT; [vcCNT] 2.5 μM", "result": "55.8 and 48.4 and 48.8"}, {"measurement": "mAnisotropy", "setting": "vcCNT; [vcCNT] 5.0 μM", "result": "72.7 and 68.7 and 59.5"}, {"measurement": "mAnisotropy", "setting": "vcCNT; [vcCNT] 10 μM", "result": "92.3 and 80.0 and 79.5"}, {"measurement": "mAnisotropy", "setting": "vcCNT; [vcCNT] 25 μM", "result": "127.1 and 118.0 and 110.9"}, {"measurement": "mAnisotropy", "setting": "vcCNT; [vcCNT] 50 μM", "result": "153.7 and 139.6 and 136.3"}, {"measurement": "mAnisotropy", "setting": "vcCNT; [vcCNT] 100 μM", "result": "173.8 and 165.0"}, {"measurement": "mAnisotropy", "setting": "vcCNT; [vcCNT] 200 μM", "result": "187.8 and 174.6"}, {"measurement": "Kd", "setting": "vcCNT; direct titration of fluorescent nucleoside with vcCNT, single-site model, mean ± SEM, read-out: KD", "result": "24 µM and 23.5 µM"}, {"measurement": "decrease of KD relative to gemcitabine", "setting": "vcCNT; vcCNT", "result": "~60", "unit": "fold"}, {"measurement": "transport by hCNT2", "setting": "hCNT2", "result": "transported neither compound"}, {"measurement": "Total charge transported, Mean", "setting": "hCNT3 (375L/446V); 400 μM nucleoside, hCNT3 (375L/446V)-expressing Xenopus oocytes", "result": 4.864, "unit": "μC"}, {"measurement": "Qgem/Qpyr-gem, Mean", "setting": "hCNT3 (375L/446V); ratio of total charge, 400 μM each, hCNT3 (375L/446V)", "result": 1.287}, {"measurement": "Total charge transported, Mean", "setting": "hCNT1 (353V/424L); 400 μM nucleoside, hCNT1 (353V/424L)-expressing Xenopus oocytes", "result": 0.255, "unit": "μC"}, {"measurement": "Qpyr-gem/Qgem, Mean", "setting": "hCNT1 (353V/424L); ratio of total charge, 400 μM each, hCNT1 (353V/424L)", "result": 0.385}, {"measurement": "Total charge transported, Mean", "setting": "hCNT3; 200 μM nucleoside, hCNT3-expressing Xenopus oocytes, mean of Exp. 1-14", "result": 0.082, "unit": "μC"}, {"measurement": "Na+ current on addition of nucleoside", "setting": "hCNT3; hCNT3-expressing oocytes, 200 μM", "result": "almost no effect"}, {"measurement": "Qgem/Qpyr-gem, Mean", "setting": "hCNT3; ratio of total charge, 200 μM each, hCNT3, mean of Exp. 1-14", "result": 96.071}]}]}
